{"source": "paper PMC10951960", "about": "“CGP7930 - An allosteric modulator of GABABRs, GABAARs and inwardly-rectifying potassium channels” (Neuropharmacology, 2023)", "key": {"neuronal GABABRs": {"target": "T1, neuronal GABABRs (Rattus norvegicus, UniProt O88871+Q9Z0U4)", "T1 construct": "endogenous in cells; host or cells: cultured rat (E18 Sprague-Dawley) hippocampal neurons, 12-17 DIV", "T1 sequence (Q9Z0U4 17-960 limits assumed)": "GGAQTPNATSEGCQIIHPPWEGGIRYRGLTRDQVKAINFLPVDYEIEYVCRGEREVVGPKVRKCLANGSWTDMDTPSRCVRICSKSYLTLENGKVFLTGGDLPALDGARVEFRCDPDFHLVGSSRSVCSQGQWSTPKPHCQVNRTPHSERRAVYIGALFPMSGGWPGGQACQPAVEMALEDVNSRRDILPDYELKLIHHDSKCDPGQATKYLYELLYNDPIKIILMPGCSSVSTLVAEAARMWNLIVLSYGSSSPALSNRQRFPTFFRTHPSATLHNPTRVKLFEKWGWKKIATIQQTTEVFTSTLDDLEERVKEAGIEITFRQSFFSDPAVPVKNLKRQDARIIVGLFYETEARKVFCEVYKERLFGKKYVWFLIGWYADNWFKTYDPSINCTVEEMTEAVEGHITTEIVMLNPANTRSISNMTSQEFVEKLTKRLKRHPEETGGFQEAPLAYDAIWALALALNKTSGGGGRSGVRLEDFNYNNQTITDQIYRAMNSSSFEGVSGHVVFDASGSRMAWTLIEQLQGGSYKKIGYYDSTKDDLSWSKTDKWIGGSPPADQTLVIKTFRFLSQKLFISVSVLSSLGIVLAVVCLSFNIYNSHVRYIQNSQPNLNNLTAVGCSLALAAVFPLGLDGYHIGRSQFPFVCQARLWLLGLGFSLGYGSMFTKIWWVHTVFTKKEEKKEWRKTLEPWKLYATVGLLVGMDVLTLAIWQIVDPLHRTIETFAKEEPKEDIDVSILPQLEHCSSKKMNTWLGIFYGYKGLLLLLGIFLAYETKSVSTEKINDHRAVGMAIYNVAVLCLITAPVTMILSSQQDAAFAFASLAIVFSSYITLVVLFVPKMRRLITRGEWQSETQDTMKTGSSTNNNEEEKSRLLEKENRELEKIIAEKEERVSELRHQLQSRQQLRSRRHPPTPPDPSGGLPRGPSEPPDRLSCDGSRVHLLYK", "T1 sequence (O88871 41-940)": "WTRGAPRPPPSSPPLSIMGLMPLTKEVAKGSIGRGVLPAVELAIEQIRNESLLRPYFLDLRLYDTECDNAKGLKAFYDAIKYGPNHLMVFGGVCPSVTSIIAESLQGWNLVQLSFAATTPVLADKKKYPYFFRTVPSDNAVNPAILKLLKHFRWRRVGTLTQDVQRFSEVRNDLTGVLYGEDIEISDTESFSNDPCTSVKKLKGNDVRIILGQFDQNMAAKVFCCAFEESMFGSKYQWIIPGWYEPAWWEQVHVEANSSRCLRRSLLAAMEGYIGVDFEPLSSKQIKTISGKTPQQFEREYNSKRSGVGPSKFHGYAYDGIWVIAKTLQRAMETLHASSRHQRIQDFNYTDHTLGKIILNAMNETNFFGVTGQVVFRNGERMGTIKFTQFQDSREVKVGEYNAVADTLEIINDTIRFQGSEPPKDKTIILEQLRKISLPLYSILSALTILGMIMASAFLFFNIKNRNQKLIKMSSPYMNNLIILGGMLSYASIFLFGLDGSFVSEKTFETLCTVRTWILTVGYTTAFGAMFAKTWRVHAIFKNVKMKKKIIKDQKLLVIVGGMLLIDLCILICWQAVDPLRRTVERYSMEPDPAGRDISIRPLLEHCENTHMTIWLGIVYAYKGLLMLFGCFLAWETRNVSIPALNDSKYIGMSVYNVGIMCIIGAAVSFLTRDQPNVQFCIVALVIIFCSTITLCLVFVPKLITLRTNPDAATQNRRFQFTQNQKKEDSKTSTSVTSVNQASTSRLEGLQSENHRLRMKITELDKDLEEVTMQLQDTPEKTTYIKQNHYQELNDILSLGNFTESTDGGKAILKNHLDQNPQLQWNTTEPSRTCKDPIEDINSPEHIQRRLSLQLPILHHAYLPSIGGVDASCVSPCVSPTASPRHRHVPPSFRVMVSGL", "assay": "baclofen-activated GIRK currents in hippocampal cultures, high external K+, whole-cell voltage clamp", "type": "cell-based", "details": "read-out: EC50 for CGP7930 potentiation of baclofen response", "method": "(§1) Briefly, single cells derived from dissected hippocampi were seeded onto glass coverslips coated with poly-D-lysine in a plating medium containing minimum essential media with 5% v/v heat-inactivated FCS, 5% v/v heat-inactivated horse serum, penicillin-G/streptomycin (100 U/100 μg/ml), 2 mM L-glutamine, and 20 mM glucose. Two hr after plating the media was changed to a Neurobasal-A based maintenance media supplemented with 1% v/v B-27, penicillin-G/streptomycin (100 U/100 μg/ml), 0.5% v/v Glutamax and 35 mM glucose.\nSpontaneous inhibitory postsynaptic currents (sIPSCs) were recorded from cultured hippocampal neurons at 12–17 days in vitro (DIV). […] GABABR-activated K^+ currents in cultured neurons were recorded in the additional presence of 2 mM kynurenic acid and 20 μM picrotoxin.\nBorosilicate glass electrodes (3–5 MΩ) were filled with a K^+-based internal solution for recording GIRK currents containing (mM): 120 KCl, 2 MgCl2, 11 EGTA, 30 KOH, 10 HEPES, 1 CaCl2, 1 GTP, 2 ATP, 14 creatine phosphate, pH 7.0. GABAAR currents and sIPSCs were recorded with a Cs-based internal solution containing (mM): 120 CsCl, 1 MgCl2, 11 EGTA, 30 KOH, 10 HEPES, 1 CaCl2, and 2 K2ATP; pH 7.2. […] Cells were held at −60 mV (sIPSCs) or −60/−70 mV (K^+ currents). Voltage clamp recordings were undertaken after optimising series resistance (Rs, <10 MΩ) and compensating for the whole-cell membrane capacitance. […]"}, "[1]": {"test_system": "GABAAR-mediated sIPSCs in hippocampal neurons", "assay": "phasic inhibition: sIPSCs in cultured hippocampal neurons in the presence of CGP55845 (1 μM)", "type": "cell-based, rat", "details": "mean ± SEM", "method": "as §1\n(§2) Spontaneous inhibitory postsynaptic currents (sIPSCs) were recorded from cultured hippocampal neurons at 12–17 days in vitro (DIV). […] For recording K^+ currents in GIRK cells and neurons, the bath solution was switched to a high K^+ solution containing 25 mM KCl and reduced NaCl (120 mM), to shift the equilibrium potential for K^+ from approximately −90 to −47 mV, thus reversing the direction of K^+ current flux to net inward. GABABR-activated K^+ currents in cultured neurons were recorded in the additional presence of 2 mM kynurenic acid and 20 μM picrotoxin.\n(§3) Borosilicate glass electrodes (3–5 MΩ) were filled with a K^+-based internal solution for recording GIRK currents containing (mM): 120 KCl, 2 MgCl2, 11 EGTA, 30 KOH, 10 HEPES, 1 CaCl2, 1 GTP, 2 ATP, 14 creatine phosphate, pH 7.0. GABAAR currents and sIPSCs were recorded with a Cs-based internal solution containing (mM): 120 CsCl, 1 MgCl2, 11 EGTA, 30 KOH, 10 HEPES, 1 CaCl2, and 2 K2ATP; pH 7.2. […] Cells were held at −60 mV (sIPSCs) or −60/−70 mV (K^+ currents). Voltage clamp recordings were undertaken after optimising series resistance (Rs, <10 MΩ) and compensating for the whole-cell membrane capacitance. Membrane currents were filtered at 5 kHz (−3 dB, 6th pole Bessel, 36 dB/octave) and stored for analysis with Clampex 10.\nsIPSCs were recorded at room temperature (20–23 °C) and detected using WinEDR and WinWCP (Strathclyde Electrophysiology Software UK), and frequency was calculated for 60 s recording epochs. For sIPSC amplitudes, several hundred events were recorded per condition and analysed as an average amplitude per cell.\nFor kinetic analysis, individual uncontaminated sIPSCs were isolated and the average 10–90% rise time and exponential decay times were measured from the mean sIPSC waveform. Weighted decay times are reported encompassing mono- and bi-exponentially decaying events according to the equation:τw = (A1 *τ1 + A2 *τ2) / (A1 + A2)where τ1 and τ2 are exponential decay time constants, and A1 and A2 are the relative amplitude contributions of τ1 and τ2, respectively."}, "[2]": {"test_system": "GABAAR-mediated tonic inhibition in hippocampal neurons", "assay": "tonic inhibition: baseline holding current and RMS noise in cultured hippocampal neurons", "type": "cell-based, rat", "method": "as §1, §2, §3\nFor tonic inhibition, to determine the average holding currents, a 30 s continuous holding current recording was sampled every 1 s, discarding epochs that coincided with sIPSCs. Any effect of CGP7930 or bicuculline on the holding current was defined by subtracting the average holding currents in control and during drug application. The baseline root-mean-square current variance (RMS) was calculated before and during drug treatment. This was estimated from a continuous (20 s) current recording, sampled every 100 ms. The median current was calculated every 5 s and values more than twice the standard deviation from the median (usually due to IPSCs) were eliminated. All drugs were applied using a U-tube rapid drug application system, or more slowly via bath perfusion.\nWe assessed the effect of CGP7930 on tonic inhibition in hippocampal cultured neurons."}, "α4β3δ GABAAR": {"target": "T2, α4β3δ GABAAR (Mus musculus, UniProt P22933+P63080+Q9D6F4)", "T2 construct": "expressed in transfected cells; host or cells: HEK-293T", "T2 sequence (Q9D6F4 36-552)": "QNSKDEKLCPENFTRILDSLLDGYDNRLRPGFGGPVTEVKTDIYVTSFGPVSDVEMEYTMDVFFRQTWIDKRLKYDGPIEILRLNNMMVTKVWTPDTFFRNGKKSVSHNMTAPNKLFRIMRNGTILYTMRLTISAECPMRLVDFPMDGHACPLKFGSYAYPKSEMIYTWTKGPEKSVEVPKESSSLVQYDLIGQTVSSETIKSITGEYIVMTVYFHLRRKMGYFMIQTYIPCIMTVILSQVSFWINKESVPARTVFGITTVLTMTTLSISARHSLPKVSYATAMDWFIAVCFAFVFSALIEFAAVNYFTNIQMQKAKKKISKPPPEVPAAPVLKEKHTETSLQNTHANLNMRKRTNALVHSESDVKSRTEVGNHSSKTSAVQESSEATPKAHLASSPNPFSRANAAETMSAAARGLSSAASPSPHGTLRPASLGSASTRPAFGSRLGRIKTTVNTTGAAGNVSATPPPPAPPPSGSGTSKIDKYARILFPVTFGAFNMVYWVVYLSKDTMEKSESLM", "T2 sequence (P63080 26-473)": "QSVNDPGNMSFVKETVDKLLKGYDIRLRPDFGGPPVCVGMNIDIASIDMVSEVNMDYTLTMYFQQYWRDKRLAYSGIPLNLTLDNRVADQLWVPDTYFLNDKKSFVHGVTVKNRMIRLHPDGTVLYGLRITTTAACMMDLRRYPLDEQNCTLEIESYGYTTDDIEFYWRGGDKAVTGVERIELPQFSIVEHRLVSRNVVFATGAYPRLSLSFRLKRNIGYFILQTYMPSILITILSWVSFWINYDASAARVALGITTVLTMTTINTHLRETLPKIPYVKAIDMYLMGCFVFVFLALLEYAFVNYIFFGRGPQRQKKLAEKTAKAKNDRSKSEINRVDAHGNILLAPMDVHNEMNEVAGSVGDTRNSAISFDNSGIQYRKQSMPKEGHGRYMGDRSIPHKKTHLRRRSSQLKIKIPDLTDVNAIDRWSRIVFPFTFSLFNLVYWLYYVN", "T2 sequence (P22933 17-449 limits assumed)": "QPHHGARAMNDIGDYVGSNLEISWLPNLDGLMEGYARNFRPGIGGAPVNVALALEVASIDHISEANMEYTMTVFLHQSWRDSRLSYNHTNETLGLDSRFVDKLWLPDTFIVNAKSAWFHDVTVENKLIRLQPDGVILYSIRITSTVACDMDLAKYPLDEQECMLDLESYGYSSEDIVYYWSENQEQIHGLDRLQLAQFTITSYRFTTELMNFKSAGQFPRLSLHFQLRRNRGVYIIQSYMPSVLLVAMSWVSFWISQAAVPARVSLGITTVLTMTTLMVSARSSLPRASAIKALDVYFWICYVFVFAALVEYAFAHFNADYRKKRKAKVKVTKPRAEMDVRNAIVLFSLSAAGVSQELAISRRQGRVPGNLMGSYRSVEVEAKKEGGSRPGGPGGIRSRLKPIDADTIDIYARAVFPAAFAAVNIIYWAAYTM", "assay": "whole-cell currents of recombinant GABAA receptors in HEK-293 cells (α4β3δ)", "type": "cell-based, murine", "method": "CGP55845, and other drugs, were obtained from Merck (Sigma-Aldrich) unless otherwise stated.\nAll cell culture reagents were acquired from ThermoFisher unless otherwise stated. […] These cells are referred to as GIRK cells throughout the text and were transiently transfected with cDNAs for eGFP, GABAB R1a and R2 in a 1:1:5 ratio applied 1–2 h after cell plating.\nas §2, §3\nConcentration-response curves were generated by measuring the current (I) for each ligand concentration and normalising to the maximal current response (Imax).\nWe explored the ability of CGP7930 to modulate different recombinant GABAARs expressed in HEK-293 cells to avoid confounds arising from heterogeneous receptor subtypes in neurons."}}, "note": "Like-named read-outs stand apart in the source and are kept apart here.", "data": [{"smiles": "CC(C)(CO)Cc1cc(C(C)(C)C)c(O)c(C(C)(C)C)c1", "note": "[CGP7930, 3-(3′,5′-Di-tert-butyl-4′-hydroxy) phenyl-2,2-dimethylpropanol]", "values": [{"measurement": "EC50", "setting": "neuronal GABABRs", "result": "0.9 ± 0.6", "unit": "µM"}, {"measurement": "sIPSC Amplitude", "setting": "[1]; 100 nM", "result": "−70.0 ± 8.9 (7) pA"}, {"measurement": "sIPSC Decay τ (weighted decay time)", "setting": "[1]; 100 nM", "result": "61.9 ± 7.2 (7) ms"}, {"measurement": "sIPSC Frequency", "setting": "[1]; 100 nM", "result": "3.28 ± 0.62 (8) Hz"}, {"measurement": "sIPSC Rise time (10–90%)", "setting": "[1]; 100 nM", "result": "2.5 ± 0.20 (9) ms"}, {"measurement": "sIPSC Amplitude", "setting": "[1]; 500 nM", "result": "−73.9 ± 8.8 (7) pA"}, {"measurement": "sIPSC Decay τ (weighted decay time)", "setting": "[1]; 500 nM", "result": "100.8 ± 11 (7) ms"}, {"measurement": "sIPSC Frequency", "setting": "[1]; 500 nM", "result": "1.53 ± 0.32 (8) Hz"}, {"measurement": "sIPSC Rise time (10–90%)", "setting": "[1]; 500 nM", "result": "3.2 ± 0.39 (9) ms"}, {"measurement": "sIPSC Amplitude", "setting": "[1]; 1 μM", "result": "−124.6 ± 37.7 (7) pA"}, {"measurement": "sIPSC Decay τ (weighted decay time)", "setting": "[1]; 1 μM", "result": "205.5 ± 117 (7) ms"}, {"measurement": "sIPSC Frequency", "setting": "[1]; 1 μM", "result": "0.38 ± 0.07 (8) Hz"}, {"measurement": "sIPSC Rise time (10–90%)", "setting": "[1]; 1 μM", "result": "16.1 ± 5.2 (9) ms"}, {"measurement": "Membrane current RMS noise", "setting": "[2]; 100 nM", "result": "6.4 ± 0.4 (9) pA"}, {"measurement": "Membrane current RMS noise", "setting": "[2]; 500 nM", "result": "8.6 ± 0.9 (9) pA"}, {"measurement": "Tonic currents (change in baseline holding current)", "setting": "[2]; 500 nM to 1 μM", "result": "−441.6 ± 124.7 (9) pA"}, {"measurement": "Membrane current RMS noise", "setting": "[2]; 1 μM", "result": "12.7 ± 1.7 (9) pA"}, {"measurement": "Membrane current RMS noise", "setting": "[2]; 1 μM + Bic (50 μM bicuculline)", "result": "5.7 ± 0.5 (9) pA"}, {"measurement": "Tonic currents (change in baseline holding current)", "setting": "[2]; 1 μM CGP7930 to 50 μM bicuculline (Bic)", "result": "372.0 ± 88.5 (9) pA"}, {"measurement": "Tonic currents (change in baseline holding current)", "setting": "[2]; 100–500 nM", "result": "−115.6 ± 37.8 (9) pA"}, {"measurement": "Tonic currents (change in baseline holding current)", "setting": "[2]; Control to 100 nM", "result": "−21.41 ± 5.4 (9) pA"}, {"measurement": "IC50", "setting": "α4β3δ GABAAR", "result": "19.6 ± 13.1", "unit": "µM"}, {"measurement": "EC50", "setting": "α4β3δ GABAAR; EC50 of GABA EC20 modulation curve, α4β3δ, ∼EC20 GABA, n = 7", "result": "1 ± 0.3", "unit": "µM"}, {"measurement": "EC50", "setting": "α4β3δ GABAAR; α4β3δ (αβδ), read-out: EC50 for direct activation by CGP7930 alone", "result": "13.1 ± 1.4", "unit": "µM"}, {"measurement": "threshold for direct activation", "setting": "α4β3δ GABAAR; α4β3δ, CGP7930 alone", "result": "1 to 3", "unit": "µM"}]}]}
